From patent publication US20250057813A1, “APOPTOSIS RELATED PROTEIN IN THE TGF-BETA SIGNALING PATHWAY (ARTS) MIMETIC COMPOUNDS, COMPOSITIONS, METHODS AND USES THEREOF IN INDUCTION OF APOPTOSIS” (Carmel-Haifa University Economic Corporation Ltd., priority 2022, published 2025) come the findings set out here.

One test has as its system 93 cancer cell lines. Kind of test: Viability assay (SRB), cancer cell line screen. The note with it: 72 hrs, 10 mM to 0.1 μM. It counts as cell-based. How it is done: (§1) The assay was performed at six tenfold serial dilutions of the B3 compounds: 10 mM (stock), 1 mM, 100 μM, 10 μM, 1 μM and 0.1 μM. The screen was performed on 93 cancer cell lines and PBMC as normal cell control. The B3 compound was incubated with the cells for 72 hours. The following cancer cell lines were screened:
(§2) The Sulforhodamine B (SRB) assay was used as a screening method. Briefly, the method relies on the property of SRB, to bind stoichiometrically to proteins under mild acidic conditions and to be extracted under basic conditions. Thus, the amount of bound dye can be used as a proxy for cell mass, which can then be extrapolated to measure cell proliferation. The protocol can be divided into four main steps: preparation of treatment, incubation of cells with treatment of choice, cell fixation and SRB staining and absorbance measurement.

For a further test, the system named is A-375 cells. As to the kind of experiment: Viability assay (SRB), cancer cell line screen. Particulars: Homo sapiens; A-375, 72 hours incubation; read-out: GI50 score. The format is cell-based. Here is the method: as §1, §2
Another test concerns Jurkat cell lines. Kind of test: PrestoBlue viability assay. It counts as cell-based. The note with it: 20 μM B3 vs 12.5 μM Etoposide, 24 h.
The test system of the next test is MCF10AT1K (M2) cells. Kind of test: 3D BME culture of M2 organoids, light microscopy. It counts as cell-based, Human. Here is the method:
Cells were harvested from their growth plates using 0.25% trypsin EDTA. Collected cells were cultured in Cultrex® growth factor reduced Basement Membrane Extract (BME: Trevigen, Inc) as follows: An 8 chamber glass slide system (Lab-TEK® II, Naperville, IL) was coated with 60 μl BME [Barkan D. et al., Cancer Research (2008)](protein concentration between […]; thickness-1-2 mm). 5×10^3 cells per well were re-suspended in DMEM/F12 supplemented with 2.5% DHS and 2% BME and cultured on the coated slides. Slides were incubated at 37° C., 5% CO2 incubator. Cells were re-fed every 4 days. Cell morphology was monitored by light microscopy. Immunofluorescence images were captured by Nikon Al—R confocal laser scanning microscope (Haifa University, Haifa, Israel).

Test [1] concerns CCRF-CEM (acute lymphoblastic leukemia) cell line. As to the kind of experiment: Western blot analysis of CCRF-CEM. The note with it: B3 alone, 24 hrs. It counts as cell-based. Here is the method: (§3) The cells were lysed in WCE (whole-cell extract) buffer [25 mM Hepes, pH 7.7, 0.3M NaCl, 1.5 mM MgCl2, 0.2 mM EDTA, 0.1% Triton X-100, 100[μg/ml PMSF and protease inhibitor cocktail (Roche, 1:100 dilution)]. 100 μg of total cell protein, measured with the Bio-Rad Protein Assay kit, were separated by SDS-PAGE (12%) followed by transfer for 2 h on to a nitrocellulose membrane. The membrane was blocked with 5% (w/v) non-fat dried skimmed milk powder in PBS supplemented with 0.05% Tween20 (PBS-T) for 1 hour at room temperature (R.T). Membrane was then probed with primary antibody at 4° C. overnight. Next, the membrane was incubated with the appropriate HRP-conjugated secondary antibody, for 1 hour at R.T. and washed 15 min ×3 with PBS-T. WesternBright ECL (Advansta) was added to the membrane for 2 min and analyzed using ImageQuant LAS-4000 analyzer (GE Healthcare Life Sciences) & “ImageQuant LAS-4000” software (GE Healthcare Life Sciences). Densitometry analysis was performed using ImageQuant total lab 7 (GE Healthcare Life Sciences), image analysis software.
In general terms: A western blot detects proteins with antibodies after separation by electrophoresis.

Test [2] concerns p53 Ubiquitylation in HCT 116 XIAP KO cells. Kind of test: In vivo ubiquitylation assay of p53. It counts as cell-based. Particulars: 20 μM B3, XIAP KO cells. Here is the method:
(§4) All cells were transiently transfected with a Ub-HA (ubiquitin-tagged with HA) construct and treated with a proteasome inhibitor (Bortezomib or MG-132, at 20 μM for 6 h). after 1 h of proteasome inhibitor incubation, B3 (20 μM) or DMSO was added to the medium for an additional 5 h. After 6 h of Bortezomib/MG-132 along with 5 h of B3 treatments, the cells were harvested and lysed using RIPA buffer (Tris-HCl pH 7.5 50 mM, NaCl 150 mM, NP-40 (Igepal) 0.3%) containing protease inhibitor cocktail (Complete, Roche), 100 µg/ml PMSF, 5 mM N-ethylmaleimide, and 5 mM iodoacetamide to preserve ubiquitin chains. Following 15 min of centrifugation (10,000×g, 4° C.), the supernatant was transferred into a clean Eppendorf tube. A ubiquitination assay using immunoprecipitation with anti-p53 antibody (CS2524) (endogenous p53 was pulled down) was performed as described above with 1:500 antibody per 1000 μg protein. Poly-ubiquitylated forms of p53 were detected using an anti-p53 antibody (DO-1, sc-126).

Test [3] concerns p53 Ubiquitylation in HCT 116 WT. Kind of test: In vivo ubiquitylation assay of p53. The format is cell-based. The note with it: 20 μM B3, 5 h, with proteasome inhibitor. How it is done:
as §4

For test [4], the system named is A375 human melanoma cells. As to the kind of experiment: SDS PAGE and Western blot analysis of A375 cells. The format is cell-based. How it is done:
as §3
Cells were lysed in whole-cell extract buffer [25 mM HEPES, pH 7.7, […], 1.5 mM MgCl2, 0.2 mM EDTA, 0.1% Triton X-100, 100 μg/ml phenylmethylsulfonyl fluoride (PMSF) and protease inhibitor cocktail (Roche, 1:100 dilution)] and placed on ice for 30 min (vortexing once after 15 min). After 30 minutes, the samples were centrifuged at 13,000×g for 10 minutes at 4° C. The supernatants containing total protein were measured for protein concentration using Bio-Rad Protein Assay Dye Reagent Concentrate Kit. 40 to […] was separated by sodium dodecyl sulfate-polyacrylamide gel electrophoresis (SDS-PAGE) (12% or 7.5%), followed by transfer to a nitrocellulose membrane. The membranes were blocked with 5% (w/v) non-fat dried skimmed milk powder in PBS supplemented with 0.05% Tween-20 (PBS-T) for 1 h at RT. Next, primary antibodies were added at 4° C. overnight or for 2 h at room temperature. Membranes were then incubated with secondary antibody for 1 h at RT and washed three times for 15 min each with PBS-T. Western Bright ECL (Advansta) was added to the membrane for 30-60 s and analyzed using Image Quant LAS-4000 (GE Healthcare Life Sciences) and Image Quant LAS-4000 software (GE Healthcare Life Sciences).

For test [5], the system named is MG-63 osteosarcoma cell line. As to the kind of experiment: Dose response of cell death with B3 relative to DMSO. Particulars: increasing doses of B3. The format is cell-based.

Broadly, the GI50 is the concentration at which growth is held to half of that of the control. Consider `Cn1ccnc1C(=O)c1ccc(NC(=O)C(=O)N[C@H](CO)Cc2ccccc2)cc1` [B3, (S)-N1-(1-hydroxy-3-phenylpropan-2-yl)-N2-(4-(1-methyl-1H-imidazole-2-carbonyl)phenyl)oxalamide], for which the “sensitivity of cancer cell lines to B3” value with 93 cancer cell lines was “sensitive”. Moreover, in the test on A-375 cells, the GI50 was 14.8 µM. Also, in the test on Jurkat cell lines, the “cell death compared with Etoposide” value is on record as “as efficient as the strong pro-apoptotic chemotherapeutic agent Etoposide”. Besides, the “cellular death (blebbing, cell shrinkage)” value in the test on MCF10AT1K (M2) cells (40 μM, 24 h) was “induced cellular death”. The “cellular death (blebbing, cell shrinkage)” value in the test with MCF10AT1K (M2) cells (increasing concentrations, 7 days, dose dependent) is given as “induced cellular death”. For the same molecule, the induction of apoptosis entry in [1] was “sufficient to induce apoptosis”. The “p53 Ubiquitylation levels” value in test [2] is recorded as “no effect”. Further, the “Ubiquitylation of p53” value in [3] is “inhibit”. Also, in test [4] (20 μM, 24 hrs), the Bcl-2 levels result is on record as “clearly reduced”, the XIAP levels result is given as “clearly reduced”, the “cleavage of Caspase 3” value was “increased” and the “cleavage of Caspase 9” value is reported as “increased”. Besides, in test [4] (20 μM, 24 hrs), the “cleavage of PARP” value was “increased”. Besides, in test [4] (20, 30, 40 μM B3, 24 hours), the MDM2 levels entry is listed as “reduction”, the XIAP levels result was “reduction”, the “cPARP or caspase3” value is given as “elevation” and the p53 levels entry is “elevation”. Moreover, the ARTS levels result in [4] (B3 in combined treatment with ABT-199, 24 hrs) is “downregulated”. For the same molecule, in [4] (six hours of B3 treatment), the Bcl-2 levels entry was “decreased”. Further, the cell death entry in [5] is listed as “dose-dependent death”.
